Test [1] has as its system Wnt-responsive Sp5-Luc reporter in SW480 colon carcinoma cells. As to the kind of experiment: Screening assay for Wnt activity (Sp5-Luc reporter gene assay). Conditions: Homo sapiens; for pEC50: SW480; for inhibition at 10 µM: SW480, read-out: percent inhibition at 10 μM. Background: In a reporter assay the amount or activity of a reporter protein is the signal.
Test [2] has as its system SW480 colon carcinoma cells. As to the kind of experiment: Cell viability assay (CellTiter-Glo). Conditions: Homo sapiens; for pEC50: SW480, 96 h; for inhibition at 10 µM: SW480, read-out: percent inhibition at 10 μM.
The next test concerns the target DYRK1A kinase (Homo sapiens, UniProt Q13627). In words: DYRK1A kinase activity (Ser/Thr 18 peptide Z-lyte FRET assay).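 Note: kinase activity read as coumarin/fluorescein emission ratio after development step, with unphosphorylated and phosphorylated peptide forms setting 0% and 100% controls, values from dose-response curves.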 Format: biochemical. The conditions noted are these: recombinant DYRK1A, 30 μM ATP, one hour at room temperature.
A further test concerns the target GSK3β kinase (Homo sapiens, UniProt P49841). In words: GSK3β kinase activity (Ser/Thr 09 peptide Z-lyte FRET assay). Format: biochemical. Conditions: recombinant kinase, 46 μM ATP, one hour at room temperature; read-out: EC50.
The subject of test [3] is α-smooth muscle actin (aSMA) positive LL29 cells. In words: Inhibition of the fibrotic process: αSMA staining in TGF-β1 treated LL29 fibroblasts from IPF patients. The conditions noted are these: Homo sapiens, Fibroblast; for pEC50: 96 h; for inhibition at 10 µM: read-out: percentage in parentheses after EC50 >10.
Another test deals with IL-6. As to the kind of experiment: IL-6 inhibition in LPS-stimulated human peripheral blood mononuclear cells (HTRF). Conditions: Homo sapiens, PBMC; for pEC50: 22 h; for inhibition at 10 µM: read-out: percentage in parentheses after EC50 >10.
Test [4] concerns secreted cytokines TNFα, IL-6 and KC-GRO. In words: Secreted cytokines in Lipopolysaccharide-stimulated BV-2 cells (Table 9 does not say which cytokine). It counts as cell-based, mouse. The conditions noted are these: Mus musculus, BV-2, 5 h; read-out: EC50.

pEC50: −log10 of the molar value.

Sequence of GSK3β kinase (P49841 whole entry): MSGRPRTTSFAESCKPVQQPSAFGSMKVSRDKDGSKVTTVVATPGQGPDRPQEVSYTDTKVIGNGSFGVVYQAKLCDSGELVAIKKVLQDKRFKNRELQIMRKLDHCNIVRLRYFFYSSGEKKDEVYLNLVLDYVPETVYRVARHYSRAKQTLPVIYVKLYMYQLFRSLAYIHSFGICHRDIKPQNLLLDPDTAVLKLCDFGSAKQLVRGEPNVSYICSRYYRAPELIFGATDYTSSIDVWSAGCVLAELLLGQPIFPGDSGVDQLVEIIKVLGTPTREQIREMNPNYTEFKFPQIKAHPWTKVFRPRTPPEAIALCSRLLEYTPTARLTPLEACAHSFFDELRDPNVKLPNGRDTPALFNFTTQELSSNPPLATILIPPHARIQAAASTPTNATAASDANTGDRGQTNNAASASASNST

Turning to `CN1CCCN(CC(=O)Nc2cc3cc(-c4cnn(C)c4)cnc3cn2)CC1` [Compound 2826, 2-(4-Methyl-1,4-diazepan-1-yl)-N-(3-(1-methyl-1H-pyrazol-4-yl)-1,7-naphthyridin-6-yl)acetamide], the pEC50 (usually the negative decadic logarithm of the EC50, by convention in mol/L) in test [1] is less than 5.00; in test [2], less than 5.00; on DYRK1A kinase, 7.09; at GSK3β kinase, 5.27; in test [3], less than 5.00; with IL-6, less than 5.00. The pEC50 in test [4] was 5.28. Moreover, the inhibition at 10 µM in test [1] was found to be 11.2%; in test [2] it was 20.4%; in test [3], 37.9%; in the test with IL-6, 2.1%.
For the molecule `CN1CCc2ccc(C(=O)Nc3cc4cc(-c5cnn(C)c5)ncc4cn3)cc2C1` [Compound 3829, 2-Methyl-N-(6-(1-methyl-1H-pyrazol-4-yl)-2,7-naphthyridin-3-yl)-1,2,3,4-tetrahydroisoquinoline-7-carboxamide], the pEC50 in test [1] is 6.00; in test [2], 5.03; at DYRK1A kinase, 8.00; on GSK3β kinase, 6.12; in test [3] it was 6.12; with IL-6 it was less than 5.00. Besides, the pEC50 in test [4] was 6.27. Also, the inhibition at 10 µM in the test on IL-6 came to 5.3%.
Consider `Cn1cc(-c2cnc3cnc(NC(=O)CC4CNCCO4)cc3c2)cn1` (stereo not drawn) [Compound 2807, N-(3-(1-Methyl-1H-pyrazol-4-yl)-1,7-naphthyridin-6-yl)-2-(morpholin-2-yl) acetamide], for which the pEC50 is less than 5.00 in test [1]; less than 5.00 in test [2]; 7.13 on DYRK1A kinase; 5.31 on GSK3β kinase; less than 5.00 in test [3]; 5.14 in the test on IL-6. The pEC50 in test [4] is 6.04. Besides, the inhibition at 10 µM in test [1] was 0%; in test [2], 7.9%; in test [3], 35.2%.
For `CN(C)Cc1ccc(C(=O)Nc2cc3cc(-c4cnn(C)c4)ncc3cn2)cc1` [Compound 3797, 4-((Dimethylamino)methyl)-N-(6-(1-methyl-1H-pyrazol-4-yl)-2,7-naphthyridin-3-yl)benzamide], the pEC50 in test [1] was 6.37; in test [2] it was 5.15; on DYRK1A kinase it was 8.10; on GSK3β kinase, 6.39; in test [3], 5.57; with IL-6, less than 5.00. Besides, in test [4], the negative logarithm of the EC50 (pEC50) was 7.27. Also, the inhibition at 10 µM in the test on IL-6 came to 7%.
`CO[C@H]1CC[C@H](C(=O)Nc2cc3cc(-c4nnc(C)s4)ncc3cn2)CC1` [Compound 4332, trans-4-Methoxy-N-(6-(5-methyl-1,3,4-thiadiazol-2-yl)-2,7-naphthyridin-3-yl)cyclohexane-1-carboxamide]: the negative-log EC50 (pEC50) in test [1] is less than 5.00; in test [2], less than 5.00; on DYRK1A kinase it was 7.32; at GSK3β kinase, 6.08; in test [3] it was less than 5.00; with IL-6, less than 5.00. In test [4], the pEC50 was less than 5.00. For the same molecule, the inhibition at 10 µM in test [1] was 9.6%; in test [2], 16.5%; in test [3] it was 23.6%; in the test with IL-6, 0%.
As to `CC(C)n1cc(C(=O)Nc2ncc3ccc(-c4cncc(NC5CCN(C)CC5)n4)cc3n2)cn1` [Compound 1813, 1-Isopropyl-N-(7-(6-((1-methylpiperidin-4-yl)amino)pyrazin-2-yl)quinazolin-2-yl)-1H-pyrazole-4-carboxamide], the pEC50 was 6.40 in test [1]; 6.00 in test [2]; 8.70 on DYRK1A kinase; less than 5.00 at GSK3β kinase; 5.23 in test [3]; less than 5.00 in the test with IL-6. For the same molecule, the pEC50 in test [4] is 6.02. Besides, the inhibition at 10 µM with IL-6 was 42%.
For `CN1CCN(c2ccc(C(=O)Nc3ncc4ccc(-c5cnn(C)c5)cc4n3)cn2)CC1` [Compound 1058, N-(7-(1-Methyl-1H-pyrazol-4-yl)quinazolin-2-yl)-6-(4-methylpiperazin-1-yl)nicotinamide], the negative-log EC50 (pEC50) in test [1] was 5.67; in test [2], 5.03; on DYRK1A kinase, 8.05; on GSK3β kinase, 5.50; in test [3], less than 5.00; with IL-6, less than 5.00. In addition, the pEC50 in test [4] is 6.54. For the same molecule, the inhibition at 10 µM in test [3] was found to be 8.8%; in the test with IL-6 it was 3%.
As for `CN1CCN(c2cc(C(=O)Nc3cc4cc(-c5cnn(C)c5N)cnc4cn3)ccn2)CC1` [Compound 3024, N-(3-(5-Amino-1-methyl-1H-pyrazol-4-yl)-1,7-naphthyridin-6-yl)-2-(4-methylpiperazin-1-yl)isonicotinamide], the pEC50 in test [1] is 5.58; in test [2], 5.47; on DYRK1A kinase, 7.77; on GSK3β kinase, less than 5.00; in test [3], less than 5.00; in the test with IL-6 it was less than 5.00. The pEC50 in test [4] was 5.92. For the same molecule, the inhibition at 10 µM in test [3] was 50%; in the test on IL-6, 11.1%.
`CN1CCC(n2cc(C(=O)Nc3cc4cc(-c5cncc6[nH]ccc56)cnc4cn3)cn2)CC1` [Compound 3616, N-(3-(1H-Pyrrolo[2,3-c]pyridin-4-yl)-1,7-naphthyridin-6-yl)-1-(1-methylpiperidin-4-yl)-1H-pyrazole-4-carboxamide]: the pEC50 was 6.31 in test [1]; 6.30 in test [2]; 7.54 at DYRK1A kinase; less than 5.00 on GSK3β kinase; 5.50 in test [3]; 5.63 in the test on IL-6. Further, the pEC50 in test [4] is 5.92.
For `CN1CCN(c2cc(C(=O)Nc3cc4cc(-c5cncs5)ncc4cn3)ccn2)CC1` [Compound 4257, 2-(4-Methylpiperazin-1-yl)-N-(6-(thiazol-5-yl)-2,7-naphthyridin-3-yl) isonicotinamide], the negative logarithm of the EC50 (pEC50) is 5.39 in test [1]; 5.61 in test [2]; 8.22 at DYRK1A kinase; 5.79 on GSK3β kinase; 5.60 in test [3]; less than 5.00 with IL-6. For the same molecule, the negative-log EC50 (pEC50) in test [4] is 6.20. Moreover, in the test with IL-6, the inhibition at 10 µM stood at 5.3%.
Regarding `CN1CCN(c2ccc(C(=O)Nc3cc4cc(-c5cnn(C)c5)ncc4cn3)cn2)CC1` [Compound 3778, N-(6-(1-Methyl-1H-pyrazol-4-yl)-2,7-naphthyridin-3-yl)-6-(4-methylpiperazin-1-yl)nicotinamide], the pEC50 in test [1] was 5.40; in test [2], 5.11; at DYRK1A kinase it was 8.40; at GSK3β kinase, 6.73; in test [3] it was 6.16; in the test with IL-6, less than 5.00. Moreover, in test [4], the pEC50 is 6.14. For the same molecule, in the test on IL-6, the inhibition at 10 µM was found to be 4.2%.
For the molecule `O=C(Nc1cc2nc(-c3cncs3)ccc2cn1)c1ccncc1` [Compound 625, N-(2-(Thiazol-5-yl)-1,6-naphthyridin-7-yl)isonicotinamide], the negative-log EC50 (pEC50) in test [1] was 6.02; in test [2], less than 5.00; at DYRK1A kinase, 8.40; on GSK3β kinase, 5.08; in test [3] it was 5.52; in the test on IL-6, less than 5.00. In addition, the pEC50 in test [4] was 6.89. The inhibition at 10 µM in test [2] was 47.8%; with IL-6, 6.5%.
For the molecule `CN(C)CCNc1cc(C(=O)Nc2ncc3ccc(-c4cnn(C)c4)cc3n2)ccn1` [Compound 1071, 2-((2-(Dimethylamino)ethyl)amino)-N-(7-(1-methyl-1H-pyrazol-4-yl)quinazolin-2-yl)isonicotinamide], the pEC50 in test [1] was 5.82; in test [2] it was 5.46; at DYRK1A kinase, 8.00; at GSK3β kinase, less than 5.00; in test [3], 5.16; with IL-6, less than 5.00. In test [4], the pEC50 is 5.74. Also, in the test on IL-6, the inhibition at 10 µM turned out to be 11.8%.
Consider `Nc1cncc(-c2cc3cc(NC(=O)c4ccc(OC5CCNCC5)cc4)ncc3cn2)c1` [Compound 4431, N-(6-(5-Aminopyridin-3-yl)-2,7-naphthyridin-3-yl)-4-(piperidin-4-yloxy) benzamide], for which the pEC50 in test [1] is 5.55; in test [2] it was 5.50; on DYRK1A kinase it was 8.52; on GSK3β kinase it was 5.42; in test [3], 5.60; in the test with IL-6, less than 5.00. The negative logarithm of the EC50 (pEC50) in test [4] is 7.40. Also, the inhibition at 10 µM in the test with IL-6 was 3.6%.
As for `CN1CCC(n2cc(C(=O)Nc3ncc4ccc(-c5cnn(C)c5)cc4n3)cn2)CC1` [Compound 1136, N-(7-(1-Methyl-1H-pyrazol-4-yl)quinazolin-2-yl)-1-(1-methylpiperidin-4-yl)-1H-pyrazole-4-carboxamide], the pEC50 in test [1] was 6.49; in test [2] it was 5.54; at DYRK1A kinase it was 7.89; at GSK3β kinase it was 5.60; in test [3], 5.84; with IL-6 it was 5.50. Also, the negative logarithm of the EC50 (pEC50) in test [4] was 6.26.

Source of the values: patent US10703748B2, “Diazanaphthalen-3-yl carboxamides and preparation and use thereof” (Samumed, LLC, priority 2017, dated 2020).
